Reference: the NIST ThermoML archive (doi:10.1016/j.jct.2018.02.022)

Assay: xn = mol fraction of the nth substance listed
Conditions: 92.3 kPa, Liquid; for viscosity: Concentric cylinders viscometry; for speed of sound: Frequency=3 MHz, Single path-length method; for mass density: Vibrating tube method

OCCOCCO [diethylene glycol] + O
Conditions | mass density, 293.15 K [kg/m3] | mass density, 298.15 K [kg/m3] | speed of sound, 293.15 K [m/s] | speed of sound, 298.15 K [m/s] | viscosity, 293.15 K [mPa·s] | viscosity, 298.15 K [mPa·s]
x1 = 0.0097 | 1006.17 | 1004.88 | 1511.2 | 1523 | – | –
x1 = 0.0201 | 1013.77 | 1012.33 | 1539.6 | 1549.1 | – | –
x1 = 0.0297 | 1020.4 | 1018.8 | 1563.6 | 1571.1 | – | –
x1 = 0.0397 | 1026.98 | 1025.23 | 1586.2 | 1591.7 | – | –
x1 = 0.049 | 1032.59 | 1030.67 | – | – | 2.119 | 1.717
x1 = 0.0502 | 1033.24 | 1031.33 | 1607.7 | 1611.3 | – | –
x1 = 0.0591 | 1038.24 | 1036.19 | 1624 | 1626.1 | – | –
x1 = 0.0703 | 1044.16 | 1041.95 | 1642.5 | 1643 | – | –
x1 = 0.0796 | 1048.67 | 1046.34 | 1655.5 | 1654.7 | – | –
x1 = 0.0897 | 1053.15 | 1050.7 | 1667.9 | 1665.9 | – | –
x1 = 0.0992 | 1057.14 | 1054.62 | – | – | 3.602 | 2.877
x1 = 0.1004 | 1057.71 | 1055.14 | 1679.7 | 1676.5 | – | –
x1 = 0.149 | 1074.04 | 1071.09 | – | – | 5.458 | 4.314
x1 = 0.1507 | 1074.47 | 1071.48 | 1713 | 1705.9 | – | –
x1 = 0.1996 | 1085.68 | 1082.45 | 1723.9 | 1714.7 | – | –
x1 = 0.1998 | 1085.89 | 1082.66 | – | – | 7.66 | 6.022
x1 = 0.2467 | 1093.59 | 1090.21 | 1723 | 1712.6 | – | –
x1 = 0.249 | 1093.81 | 1090.4 | – | – | 10.04 | 7.847
x1 = 0.2943 | 1098.86 | 1095.38 | 1716.6 | 1705.5 | – | –
x1 = 0.2987 | 1099.44 | 1095.93 | – | – | 12.55 | 9.772
x1 = 0.3501 | 1103.6 | 1100.05 | – | – | 15.18 | 11.79
x1 = 0.3511 | 1103.73 | 1100.19 | 1705.1 | 1693.5 | – | –
x1 = 0.3995 | 1106.65 | 1103.05 | 1694 | 1682.2 | – | –
x1 = 0.4007 | 1106.63 | 1103.05 | – | – | 17.72 | 13.74
x1 = 0.4504 | 1108.9 | 1105.32 | – | – | 20.13 | 15.59
x1 = 0.4527 | 1109.08 | 1105.5 | 1681.7 | 1669.8 | – | –
x1 = 0.4973 | 1110.6 | 1107.02 | – | – | 22.3 | 17.24
x1 = 0.5008 | 1110.76 | 1107.17 | 1670.7 | 1658.7 | – | –
x1 = 0.5449 | 1111.95 | 1108.36 | 1661.5 | 1649.4 | – | –
x1 = 0.553 | 1112.18 | 1108.61 | – | – | 24.68 | 19.07
x1 = 0.5834 | 1112.81 | 1109.23 | 1653.4 | 1641.4 | – | –
x1 = 0.5938 | 1113.09 | 1109.52 | – | – | 26.23 | 20.23
x1 = 0.6482 | 1113.95 | 1110.37 | 1640.7 | 1628.7 | – | –
x1 = 0.6514 | 1114.07 | 1110.49 | – | – | 28.3 | 21.86
x1 = 0.6864 | 1114.52 | 1110.94 | – | – | 29.45 | 22.7
x1 = 0.6982 | 1114.6 | 1111.02 | 1632.2 | 1620.2 | – | –
x1 = 0.7444 | 1115.11 | 1111.54 | 1624.4 | 1612.5 | – | –
x1 = 0.7556 | 1115.19 | 1111.61 | – | – | 31.37 | 24.17
x1 = 0.7962 | 1115.57 | 1112.01 | 1616.7 | 1604.8 | – | –
x1 = 0.7999 | 1115.52 | 1111.95 | – | – | 32.41 | 24.94
x1 = 0.8401 | 1115.89 | 1112.33 | 1610.4 | 1598.5 | – | –
x1 = 0.8525 | 1115.89 | 1112.33 | – | – | 33.47 | 25.8
x1 = 0.8947 | 1116.23 | 1112.67 | 1603.3 | 1591.5 | – | –
x1 = 0.9002 | 1116.23 | 1112.68 | – | – | 34.4 | 26.49
x1 = 0.9092 | 1116.32 | 1112.76 | 1601.5 | 1589.6 | – | –
x1 = 0.919 | 1116.37 | 1112.81 | 1600.2 | 1588.4 | – | –
x1 = 0.9303 | 1116.39 | 1112.85 | 1599.1 | 1587.2 | – | –
x1 = 0.9393 | 1116.4 | 1112.85 | 1598 | 1586.2 | – | –
x1 = 0.9473 | 1116.5 | 1112.94 | 1597.2 | 1585.3 | – | –
x1 = 0.9554 | 1116.57 | 1113.02 | – | – | 35.26 | 27.15
x1 = 0.9566 | 1116.55 | 1112.99 | 1596 | 1584.1 | – | –
x1 = 0.9694 | 1116.6 | 1113.04 | 1594.6 | 1582.7 | – | –
x1 = 0.9801 | 1116.65 | 1113.09 | 1593.4 | 1581.5 | – | –
x1 = 0.9915 | 1116.69 | 1113.13 | 1592.1 | 1580.3 | – | –
x1 = 1 | 1116.73 | 1113.17 | 1591 | 1579.1 | 35.89 | 27.67
